Test results reported in US20070107077A1, “Microprojectile bombardment transformation of brassica” (Pioneer Hi-Bred International, Inc., priority 2005, published 2007).
Values joined by “and” are separate entries in the source; they are usually repeats but may differ in a detail not shown here. Identical values can stand only once. Counter-ions that a name gives are not always drawn.

Columns and labels:
Parameters in all cases: species or system Brassica
non-bombarded embryos = test: Effect of kanamycin on embryo growth in liquid medium, non-bombarded embryos
Description: (§1) Prior to this experiment, selection was done on solid medium, not in liquid medium. Using liquid selection for Brassica transgenic cells is novel. Selection in liquid medium is advantageous for at least the following reasons: (a) it allows selection at an early stage, thereby eliminating the need for subsequent transfers of explants, (b) it allows for a cleaner selection because the explants are generally smaller when they are in liquid medium and the liquid allows all the surfaces of the explant to be exposed to the selection agent, (c) it may reduce the frequency of chimeras, and (d) a lower amount of the selection agent is needed therefore reducing the toxicity to the researcher and the environment. The effect of various concentrations of kanamycin on embryo growth in liquid medium was tested. […] Accordingly, it was difficult to discriminate transgenic tissue or embryos from non-transgenic.

[1] = test system: pre-incubated microspores bombarded with PHP22021 and PHP22024; test: Glyphosate resistant embryo selection in liquid medium NLN-6.5S after bombardment
Method: Pre-incubated microspores were used as bombarded materials. Any Brassica line that is capable of regenerating by microspore culture can be used. The microspores were cultured for 1-3 days in NLN-17S at 31.5° C, and then in NLN-10S for 4-5 days at 25° C. The constructs used in the bombardments were PHP18644, PHP21965, PHP22024, PHP22021, and PHP23560 (see Table 9). The constructs can be the full plasmid or the expression cassette only. For example, PHP22024 can be either the expression cassette or the full plasmid. The pre-incubated microspores were filtrated with sieves of pore size of […] to 36 μm. The collected microspores were used for bombardment. The microspores were loaded on a sieve 15 μm or 20 μm on two layers of filter-paper and dried for less than one minute. The microspores and sieves were transferred to osmotic medium that contained B5 components, 1 g/l MES and 0.8-1.6% gelrite, 15-21% sucrose (pH 6.0). The microspores were treated for at least one hour on the osmotic medium before bombardment. The pre-incubated microspores were bombarded with 12.5 ng to 5 μg DNA per preparation, 15-100 μg Au particles per shot, 2.5 M CaCl2, and 650-900 psi rupture disk. […] Resistant embryos were recorded after two to three weeks of culture. […]

[2] = test system: non-transgenic microspores; test: Selection kill curve using Geneticin (G418): embryo growth and survival in liquid medium
Description: The objective was to determine the concentration of G418 that kills non-transgenic microspores.
as §1

## NC[C@H]1O[C@H](O[C@H]2[C@H](O)[C@@H](O[C@H]3O[C@H](CO)[C@@H](O)[C@H](N)[C@H]3O)[C@H](N)C[C@@H]2N)[C@H](O)[C@@H](O)[C@@H]1O [kanamycin]
non-bombarded embryos
  concentration sufficient to bleach non-bombarded embryos and inhibit non-bombarded embryo growth: 10 mg/L

## O=C(O)CNCP(=O)(O)O [Glyphosate, glyphosate]
[1]; glyphosate 0.2 mM, plasmid PHP22021
  # embryos (abnormal)/plate: 0
[1]; selection at 0.2 mM compared with 0.1 mM glyphosate
  selection efficiency, false positives: fewer false positive results

## CN[C@@H]1[C@@H](O)[C@@H](O[C@@H]2[C@@H](O)[C@H](O[C@H]3O[C@H]([C@@H](C)O)[C@@H](O)[C@H](O)[C@H]3N)[C@@H](N)C[C@H]2N)OC[C@]1(C)O [G418, G418 disulfate salt]
[2]; G418 1.25 mg/l, disulfate salt
  # Green embryos or with green island: 30 (paler) and 28 (paler)
[2]; G418 2.5 mg/l, disulfate salt
  # Green embryos or with green island: 14 (light green, smaller size) and 11 (light green, smaller size)
[2]; G418 5 mg/l
  # Green embryos or with green island: 0
[2]; G418 10 mg/l
  # Green embryos or with green island: 0
[2]; NLN with 6.5% sucrose medium
  concentration sufficient to differentiate transformed cells from untransformed cells (cleaner selection): 5 to 10 mg/L
